In series [1] the target is T1, ATP-dependent translocase ABCB1 (Homo sapiens, UniProt P08183). Description: TP_TRANSPORTER: uptake in membrane vesicles prepared from human MDR1 transfected KB3-1 cells. It counts as functional, cell membranes, Membrane vesicle. The conditions noted are these: kb 3-1.
Series [2] deals with T1, ATP-dependent translocase ABCB1. Description: TP_TRANSPORTER: uptake in membrane vesicles prepared from K562/ADM cells. It counts as functional, cell membranes, Membrane vesicle. The conditions noted are these: k562/adr.

T1 sequence (P08183 whole entry): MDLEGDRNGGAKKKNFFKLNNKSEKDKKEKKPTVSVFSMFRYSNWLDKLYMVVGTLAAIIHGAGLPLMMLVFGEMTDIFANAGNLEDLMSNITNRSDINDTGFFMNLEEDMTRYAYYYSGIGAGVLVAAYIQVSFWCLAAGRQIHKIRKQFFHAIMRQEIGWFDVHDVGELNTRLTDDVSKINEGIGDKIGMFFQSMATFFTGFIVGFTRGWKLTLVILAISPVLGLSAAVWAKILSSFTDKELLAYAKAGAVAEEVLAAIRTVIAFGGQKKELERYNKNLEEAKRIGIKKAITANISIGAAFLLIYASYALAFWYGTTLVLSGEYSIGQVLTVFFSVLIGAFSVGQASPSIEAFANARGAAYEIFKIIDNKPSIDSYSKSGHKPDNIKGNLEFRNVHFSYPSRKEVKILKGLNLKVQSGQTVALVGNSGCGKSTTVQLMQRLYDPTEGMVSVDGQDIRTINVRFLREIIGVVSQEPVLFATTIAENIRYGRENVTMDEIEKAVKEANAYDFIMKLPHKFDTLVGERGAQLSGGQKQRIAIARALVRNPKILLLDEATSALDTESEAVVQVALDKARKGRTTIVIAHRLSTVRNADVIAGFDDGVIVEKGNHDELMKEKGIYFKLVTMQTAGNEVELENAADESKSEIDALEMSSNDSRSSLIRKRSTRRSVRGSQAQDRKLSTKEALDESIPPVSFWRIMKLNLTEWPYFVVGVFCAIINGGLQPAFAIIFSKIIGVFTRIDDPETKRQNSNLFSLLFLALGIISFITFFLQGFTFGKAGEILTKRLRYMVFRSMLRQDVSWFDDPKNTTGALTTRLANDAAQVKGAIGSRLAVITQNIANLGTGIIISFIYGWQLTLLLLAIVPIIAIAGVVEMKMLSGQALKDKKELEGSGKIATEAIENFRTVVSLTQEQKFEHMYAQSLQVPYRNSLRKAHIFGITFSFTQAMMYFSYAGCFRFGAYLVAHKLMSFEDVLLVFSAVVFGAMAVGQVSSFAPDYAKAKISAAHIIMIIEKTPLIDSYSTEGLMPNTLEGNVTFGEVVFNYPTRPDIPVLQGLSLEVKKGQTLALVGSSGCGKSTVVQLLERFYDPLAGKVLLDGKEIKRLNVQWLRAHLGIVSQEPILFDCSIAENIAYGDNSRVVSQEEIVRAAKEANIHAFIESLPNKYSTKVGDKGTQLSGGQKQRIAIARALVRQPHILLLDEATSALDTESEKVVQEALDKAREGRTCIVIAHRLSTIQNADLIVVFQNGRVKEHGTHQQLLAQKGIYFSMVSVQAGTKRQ

As to `CSCC[C@H](NC(=O)[C@H](CC(C)C)NC(=O)CNC(=O)[C@H](Cc1ccccc1)NC(=O)[C@H](Cc1ccccc1)NC(=O)[C@H](CCC(N)=O)NC(=O)[C@H](CCC(N)=O)NC(=O)[C@@H]1CCCN1C(=O)[C@H](CCCCN)NC(=O)[C@@H]1CCCN1C(=O)[C@@H](N)CCCN=C(N)N)C(N)=O` [SUBSTANCE P], the Activity entry in series [1] and in series [2] was “substrate [+]” each time.
As for `C[C@H](N)C(=O)NCC(=O)N[C@H]1CSSC[C@@H](C(=O)O)NC(=O)[C@H](CO)NC(=O)[C@H]([C@@H](C)O)NC(=O)[C@H](Cc2ccccc2)NC(=O)[C@H]([C@@H](C)O)NC(=O)[C@H](CCCCN)NC(=O)[C@H](Cc2c[nH]c3ccccc23)NC(=O)[C@H](Cc2ccccc2)NC(=O)[C@H](Cc2ccccc2)NC(=O)[C@H](CC(N)=O)NC(=O)[C@H](CCCCN)NC1=O` [SOMATOSTATIN], the Activity result in series [1] and in series [2] was “substrate [+]” each time.

For the origin of these results see ChEMBL document CHEMBL2074003, “Transport of somatostatin and substance P by human P-glycoprotein” (FEBS Lett, 2004).
